Source: patent US20080292584A1 (priority 2005, published 2008)
Where “and” joins values, the source holds several entries; their conditions need not be identical. Equal values may be shown once.

Assays:
CYP3A4 [1] = molecular target: T1, CYP3A4 (Homo sapiens, UniProt P08684); assay: Induction/inhibition of CYP3A4 activity in cryopreserved human hepatocytes (testosterone)
Description: Hepatocytes from three human donors were obtained from a cryopreserved hepatocyte bank (In Vitro Technologies, Inc., USA). After thawing, viable hepatocytes were transferred to collagen-coated 48-well plates for attachment in plating medium (DMEM stock (Dulbecco's modified Eagle's medium, supplemented with bovine serum albumin, fructose, N-(2-hydroxyethyl)piperazine-N′-(2-ethanesulfonate) (HEPES), and sodium bicarbonate), supplemented with antibiotics, bovine serum, hydrocortisone, insulin and minimum essential medium (MEM) nonessential amino acids). After attachment to the collagen matrix, plating medium was replaced with sandwich medium (plating medium supplemented with VITROGEN) and incubated until use.
The supplemented KHB was replaced with 150 μL supplemented KHB containing the appropriate isoform-selective substrate and incubated for 4 hrs prior to termination by adding 150 μL ice-cold methanol, except for the CYP2C8 incubations which were terminated by adding 150 μL acetonitrile.
All substrates were dissolved in acetonitrile.
Replicate trials and controls were performed. […] Additionally, reference control samples were included to evaluate inducibility of CYP2B6, CYP2C9, and CYP2C19 in the test system.
Mean specific activity values with associated p-values≦0.05 were deemed to be statistically significant.
Target sequence in this assay (P08684 whole entry): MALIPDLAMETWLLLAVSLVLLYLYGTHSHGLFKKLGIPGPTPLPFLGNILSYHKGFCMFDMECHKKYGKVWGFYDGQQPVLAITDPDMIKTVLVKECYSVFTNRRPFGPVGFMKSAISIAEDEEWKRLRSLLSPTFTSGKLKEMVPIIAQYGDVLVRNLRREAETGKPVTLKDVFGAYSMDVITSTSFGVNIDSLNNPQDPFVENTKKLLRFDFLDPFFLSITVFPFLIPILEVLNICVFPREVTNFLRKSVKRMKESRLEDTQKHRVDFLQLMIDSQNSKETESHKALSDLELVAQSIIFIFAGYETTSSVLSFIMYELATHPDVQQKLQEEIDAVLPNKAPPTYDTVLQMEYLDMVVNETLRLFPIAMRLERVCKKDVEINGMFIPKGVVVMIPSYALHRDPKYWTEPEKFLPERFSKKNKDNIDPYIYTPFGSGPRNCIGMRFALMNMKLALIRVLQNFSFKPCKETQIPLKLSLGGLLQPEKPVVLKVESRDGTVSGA

CYP2B6 = molecular target: T2, CYP2B6 (Homo sapiens, UniProt P20813); assay: Metabolism of metaxalone by expressed recombinant human CYP2B6 at 5 or 20 pmol (Example 4); conditions: for % Turnover Mean / [metaxalone] Mean / % Turnover % / [metaxalone]: 60 min; for % Turnover % / [metaxalone]: single replicates
T2 sequence (P20813 1-491): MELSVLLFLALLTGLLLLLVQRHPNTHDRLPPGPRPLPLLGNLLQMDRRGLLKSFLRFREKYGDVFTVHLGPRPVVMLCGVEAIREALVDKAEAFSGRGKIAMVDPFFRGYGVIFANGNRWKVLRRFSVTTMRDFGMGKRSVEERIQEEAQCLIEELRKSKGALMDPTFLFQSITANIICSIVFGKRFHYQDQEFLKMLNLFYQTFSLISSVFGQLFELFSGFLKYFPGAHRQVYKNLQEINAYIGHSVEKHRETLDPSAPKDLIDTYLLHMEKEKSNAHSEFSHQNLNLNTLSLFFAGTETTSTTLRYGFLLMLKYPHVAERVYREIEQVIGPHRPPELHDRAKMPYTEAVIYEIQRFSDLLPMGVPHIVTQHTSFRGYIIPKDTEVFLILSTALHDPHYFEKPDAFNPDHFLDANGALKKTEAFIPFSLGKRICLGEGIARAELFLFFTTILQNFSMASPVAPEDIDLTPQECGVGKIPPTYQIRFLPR

CYP3A4 [2] = molecular target: T1, CYP3A4; assay: Metabolism of metaxalone by expressed recombinant human CYP3A4 at 5 or 20 pmol (Example 4); conditions: for percent turnover / % Turnover Mean / [metaxalone] Mean / % Turnover % / [metaxalone]: 60 min; for % Turnover % / [metaxalone]: single replicates, listed as Metaxalone
Target sequence in this assay (P08684 2-503 limits assumed): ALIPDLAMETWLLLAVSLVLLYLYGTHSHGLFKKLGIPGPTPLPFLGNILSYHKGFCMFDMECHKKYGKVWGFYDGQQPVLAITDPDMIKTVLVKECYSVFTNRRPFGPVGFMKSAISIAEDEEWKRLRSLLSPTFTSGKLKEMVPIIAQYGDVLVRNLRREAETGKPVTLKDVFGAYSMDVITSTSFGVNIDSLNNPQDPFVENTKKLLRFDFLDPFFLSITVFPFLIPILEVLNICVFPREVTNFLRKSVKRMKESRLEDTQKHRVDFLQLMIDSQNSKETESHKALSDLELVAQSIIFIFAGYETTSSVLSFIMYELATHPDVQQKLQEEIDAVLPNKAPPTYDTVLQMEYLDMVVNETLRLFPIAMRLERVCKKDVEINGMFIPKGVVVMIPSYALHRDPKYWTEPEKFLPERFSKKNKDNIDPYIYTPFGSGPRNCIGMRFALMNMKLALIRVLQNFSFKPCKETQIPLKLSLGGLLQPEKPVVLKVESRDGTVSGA

CYP2E1 = CYP2E1 (Homo sapiens, UniProt P05181); assay: Chemical inhibition of metaxalone turnover in human liver microsomes, CYP2E1 inhibitor clomethiazole; conditions: 1 mg/mL HLM, 60 min, with clomethiazole; for % Turnover / % inhibition of turnover / Conc.: single replicates
Sequence of CYP2E1 (P05181 whole entry): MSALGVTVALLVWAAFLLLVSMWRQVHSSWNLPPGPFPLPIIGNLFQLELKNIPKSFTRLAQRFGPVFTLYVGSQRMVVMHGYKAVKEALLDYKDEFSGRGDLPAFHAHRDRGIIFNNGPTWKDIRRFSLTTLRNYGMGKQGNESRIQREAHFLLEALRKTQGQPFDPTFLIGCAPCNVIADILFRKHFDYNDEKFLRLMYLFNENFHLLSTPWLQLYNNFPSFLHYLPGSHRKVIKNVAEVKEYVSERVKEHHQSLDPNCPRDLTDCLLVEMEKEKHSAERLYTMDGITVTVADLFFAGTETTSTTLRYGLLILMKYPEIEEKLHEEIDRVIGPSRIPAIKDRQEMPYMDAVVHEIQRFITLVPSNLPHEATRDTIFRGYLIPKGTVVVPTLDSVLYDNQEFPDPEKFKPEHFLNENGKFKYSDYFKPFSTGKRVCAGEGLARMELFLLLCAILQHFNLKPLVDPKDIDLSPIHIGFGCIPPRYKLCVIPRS
Description: Human liver microsomes pooled from 15 individuals (male and female) (Pool HMMC-PL020; CellzDirect, Inc., In Vitro Products and Services Division) were used in some experiments of this study.
% Turnover=100−{[TA(final)]/[mean of TA(0 min)]}×100,
% Inhibition of Turnover=100{1−([TA(0 min)]−[TA(final-inhibitor)])/([TA(0 min)]−[TA(final-no inhibitor)])}.
The inhibitors or vehicle control were incubated with the pooled human liver microsomes (1 mg/mL) and NADPH (1 mM) in 0.1 M phosphate buffer, pH 7.4. […] Incubations were conducted in triplicate and terminated by addition of organic solvent. Samples were extracted and analyzed by LC-MS/MS as described above.

[3] = 0.75 μM metaxalone, 5 pmol cyp, listed as Metaxalone
[4] = 0.75 μM metaxalone, 20 pmol cyp
[5] = 0.75 μM metaxalone, 20 pmol cyp, listed as Metaxalone
[6] = 7.5 μM metaxalone, 5 pmol cyp, listed as Metaxalone
[7] = 7.5 μM metaxalone, 20 pmol cyp, listed as Metaxalone

## Cc1cc(C)cc(OCC2CNC(=O)O2)c1 (centres unmarked) [metaxalone, 5-[(3,5-dimethylphenoxy)methyl]-2-oxazolidinone]
CYP3A4 [1]
  Inducer/Inhibitor: +
CYP3A4 [1]; Donor 2, Metaxalone 0.4 μM
  Specific Activity Mean ± SD: 1.20 ± 0.109 pmol/min/million cells
CYP3A4 [1]; human
  6β-Hydroxytestosterone formation Adjusted Mean ± SD: 0.116 ± 0.00524 µM
  Specific Activity Mean ± SD: <0.905 ± 0.0213 pmol/min/million cells
CYP3A4 [1]; human, 4 h, 4 μM
  6β-Hydroxytestosterone formation Adjusted Mean ± SD: <0.100 ± 0.000 µM
CYP3A4 [1]; human, 48 h, 0.4 μM
  Specific Activity Mean ± SD: <0.893 ± 0.000 pmol/min/million cells
CYP3A4 [1]; human, hepatocytes, 48 h
  effect on CYP3A4 activity: did not induce CYP3A4 activity
CYP3A4 [1]; human, hepatocytes, 48 h, 40 μM
  induced CYP3A4 activity: about 21%
CYP2B6; 0.75 μM metaxalone, 5 pmol cyp
  % Turnover Mean: −6.8%
  [metaxalone] Mean: 0.845 µM
CYP2B6; [3]
  % Turnover %: −11.0% and −2.8% and −6.6%
  [metaxalone]: 0.878 µM and 0.813 µM and 0.843 µM
CYP2B6; [4]
  % Turnover Mean: −1.8%
  [metaxalone] Mean: 0.805 µM
CYP2B6; [5]
  % Turnover %: 5.5% and −6.7% and −4.0%
  [metaxalone]: 0.748 µM and 0.845 µM and 0.823 µM
CYP2B6; 7.5 μM metaxalone, 5 pmol cyp
  % Turnover Mean: 3.0%
  [metaxalone] Mean: 8.20 µM
  % Turnover %: −1.3%
CYP2B6; [6]
  % Turnover %: 3.0% and 7.2%
  [metaxalone]: 8.56 µM and 8.19 µM and 7.84 µM
CYP2B6; 7.5 μM metaxalone, 20 pmol cyp
  % Turnover Mean: −0.20%
  [metaxalone] Mean: 8.46 µM
  % Turnover %: −6.0%
CYP2B6; [7]
  % Turnover %: 1.8% and 3.6%
  [metaxalone]: 8.95 µM and 8.29 µM and 8.14 µM
CYP2B6; CYP isozyme 2B6, summary of studies
  Substrate: 0
CYP3A4 [2]; 0.75 μM metaxalone, 5 pmol CYP450
  percent turnover: 17.9%
CYP3A4 [2]; 0.75 μM metaxalone, 5 pmol cyp
  % Turnover Mean: 17.9%
  [metaxalone] Mean: 0.585 µM
  % Turnover %: 20.3% and 18.3% and 15.0%
  [metaxalone]: 0.567 µM and 0.582 µM and 0.605 µM
CYP3A4 [2]; 0.75 μM metaxalone, 20 pmol CYP450
  percent turnover: 34.0%
CYP3A4 [2]; [4]
  % Turnover Mean: 34.0%
  [metaxalone] Mean: 0.470 µM
  % Turnover %: 31.7% and 39.0% and 31.4%
  [metaxalone]: 0.486 µM and 0.434 µM and 0.488 µM
CYP3A4 [2]; 7.5 μM metaxalone, 5 pmol CYP450
  percent turnover: 16.6%
CYP3A4 [2]; 7.5 μM metaxalone, 5 pmol cyp
  % Turnover Mean: 16.6%
  [metaxalone] Mean: 6.43 µM
  % Turnover %: 17.5% and 16.7% and 15.7%
  [metaxalone]: 6.36 µM and 6.43 µM and 6.50 µM
CYP3A4 [2]; 7.5 μM metaxalone, 20 pmol CYP450
  percent turnover: 32.4%
CYP3A4 [2]; 7.5 μM metaxalone, 20 pmol cyp
  % Turnover Mean: 32.4%
  [metaxalone] Mean: 5.22 µM
  % Turnover %: 34.3% and 32.8% and 30.0%
  [metaxalone]: 5.07 µM and 5.18 µM and 5.40 µM
CYP3A4 [2]; CYP isozyme 3A4, summary of studies
  Substrate: +
CYP2E1; 0.75 μM metaxalone
  % inhibition of turnover Mean: 113%
  Mean Conc.: 0.802 µM
  % Turnover: 5.6%
  % inhibition of turnover: 104% and 154% and 81.4%
  Conc.: 0.780 µM and 0.896 µM and 0.729 µM
CYP2E1; 7.5 μM metaxalone
  % Turnover Mean: 0.356%
  % inhibition of turnover Mean: 98.6%
  Mean Conc.: 8.48 µM
  % Turnover: 2.7%
  % inhibition of turnover: 89.2% and 101% and 105%
  Conc.: 8.29 µM and 8.54 µM and 8.63 µM
